This experiment concerns CD2F1 mice, L1210 leukemia ip, survival T/C. Kind of experiment: NCI In Vivo Anticancer Drug Screen. Data for tumor model L1210 Leukemia (intraperitoneal) in CD2F1 (CDF1) mice. Particulars: higher = longer survival. An outline of the steps: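 Implant tumor; dose compound or vehicle; measure endpoint in both groups; report treated divided by control.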
Where [1] appears, read: endpoint: mean survival time, dose: 100.0 mg/kg/injection, schedule: Q01DX001 (ip), vehicle: saline with Tween-80.
The mark [2] stands for this setting: endpoint: mean survival time, dose: 200.0 mg/kg/injection, schedule: Q01DX001 (ip), vehicle: saline with Tween-80.
Where [3] appears, read: endpoint: mean survival time, dose: 100.0 mg/kg/injection, schedule: Q04DX003 (ip), vehicle: saline with Tween-80.
The mark [4] stands for this setting: endpoint: mean survival time, dose: 200.0 mg/kg/injection, schedule: Q04DX003 (ip), vehicle: saline with Tween-80.
[5] abbreviates: endpoint: mean survival time, dose: 400.0 mg/kg/injection, schedule: Q04DX003 (ip), vehicle: saline with Tween-80.
The mark [6] stands for this setting: endpoint: mean survival time, dose: 100.0 mg/kg/injection, schedule: Q01DX009 (ip), vehicle: saline with Tween-80.
[7] abbreviates: endpoint: mean survival time, dose: 200.0 mg/kg/injection, schedule: Q01DX009 (ip), vehicle: saline with Tween-80.
Setting [8] is: endpoint: mean survival time, dose: 100.0 mg/kg/injection, schedule: Q01DX009 (ip), vehicle: saline.
[9] abbreviates: endpoint: mean survival time, dose: 100.0 mg/kg/injection, schedule: Q04DX003 (ip), vehicle: saline.
[10] abbreviates: endpoint: mean survival time, dose: 200.0 mg/kg/injection, schedule: Q01DX009 (ip), vehicle: saline.
Where [11] appears, read: endpoint: mean survival time, dose: 200.0 mg/kg/injection, schedule: Q04DX003 (ip), vehicle: saline.
Where [12] appears, read: endpoint: mean survival time, dose: 400.0 mg/kg/injection, schedule: Q01DX009 (ip), vehicle: saline.
Setting [13] is: endpoint: mean survival time, dose: 400.0 mg/kg/injection, schedule: Q04DX003 (ip), vehicle: saline.
Where [14] appears, read: endpoint: mean survival time, dose: 100.0 mg/kg/injection, schedule: Q04DX002 (ip), vehicle: saline with Tween-80.
Setting [15] is: endpoint: mean survival time, dose: 200.0 mg/kg/injection, schedule: Q04DX002 (ip), vehicle: saline with Tween-80.
Where [16] appears, read: endpoint: mean survival time, dose: 400.0 mg/kg/injection, schedule: Q04DX002 (ip), vehicle: saline with Tween-80.

This note sets out measurements from PubChem BioAssay AID256 (DTP/NCI, 2004).

Values joined by “and” are separate entries in the source; they are usually repeats but may differ in a detail not shown here. Identical values can stand only once. Inconclusive results and toxic doses are left out.

Turning to `CC(=O)C1CCC2C3CC=C4CC(n5ccc(=O)[nH]c5=O)CCC4(C)C3CCC12C` (stereo unspecified), the T/C was 97 % of control (endpoint: mean survival time, dose: 12.5 mg/kg/injection, schedule: Q04DX003 (ip), vehicle: Klucel (hydroxypropylcellulose) (HPC)); 101 % of control (endpoint: mean survival time, dose: 25.0 mg/kg/injection, schedule: Q04DX003 (ip), vehicle: Klucel (hydroxypropylcellulose) (HPC)); 97 % of control (endpoint: mean survival time, dose: 50.0 mg/kg/injection, schedule: Q04DX003 (ip), vehicle: Klucel (hydroxypropylcellulose) (HPC)); 97 % of control (endpoint: mean survival time, dose: 100.0 mg/kg/injection, schedule: Q04DX003 (ip), vehicle: Klucel (hydroxypropylcellulose) (HPC)); 92 % of control (endpoint: mean survival time, dose: 200.0 mg/kg/injection, schedule: Q04DX003 (ip), vehicle: Klucel (hydroxypropylcellulose) (HPC)).
In the case of `COc1ccc(CCOS(=O)(=O)c2ccc(C)cc2)cc1`, the T/C runs as follows: under setting [1], 103 % of control; under setting [2], 101 % of control; (endpoint: mean survival time, dose: 400.0 mg/kg/injection, schedule: Q01DX001 (ip), vehicle: saline with Tween-80) 101 % of control.
As for `Cn1c(=O)c2[nH]c(-c3ccc(Cl)c(Cl)c3)nc2n(C)c1=O`, the T/C (endpoint: mean survival time, dose: 12.5 mg/kg/injection, schedule: Q01DX005 (ip), vehicle: other) is 101 % of control; the T/C (endpoint: mean survival time, dose: 25.0 mg/kg/injection, schedule: Q01DX005 (ip), vehicle: other) is 92 % of control; the T/C (endpoint: mean survival time, dose: 50.0 mg/kg/injection, schedule: Q01DX005 (ip), vehicle: other) is 92 % of control; the T/C (endpoint: mean survival time, dose: 100.0 mg/kg/injection, schedule: Q01DX005 (ip), vehicle: other) is 87 % of control; the T/C (endpoint: mean survival time, dose: 200.0 mg/kg/injection, schedule: Q01DX005 (ip), vehicle: other) was 89 % of control.
For the compound `CCCCn1cnc2c(SSc3ncnc4c3ncn4CCCC)ncnc21`, the T/C under setting [3] was 116 % of control and 106 % of control; the T/C under setting [4] is 113 % of control; the T/C (endpoint: mean survival time, dose: 264.0 mg/kg/injection, schedule: Q04DX003 (ip), vehicle: saline with Tween-80) is 97 % of control; the T/C (endpoint: mean survival time, dose: 300.0 mg/kg/injection, schedule: Q04DX003 (ip), vehicle: saline with Tween-80) is 120 % of control; the T/C under setting [5] was 122 % of control and 111 % of control; the T/C (endpoint: mean survival time, dose: 600.0 mg/kg/injection, schedule: Q04DX003 (ip), vehicle: saline with Tween-80) was 97 % of control.
Regarding `O=S1(=O)CC23C=CC=CC2(CCCC3)C1Cl` (stereo unspecified), where the note is “endpoint: mean survival time, dose: 100.0 mg/kg/injection, schedule: Q04DX003 (ip), vehicle: other”, the T/C is 94 % of control.
`Cc1c(-c2ccc(-c3ccccc3F)cc2)nc2ccc(F)cc2c1C(=O)O`: the T/C is 153 % of control (endpoint: median survival time, dose: 5.2 mg/kg/injection, schedule: Q01DX009 (ip), vehicle: water); 165 % of control (endpoint: median survival time, dose: 6.25 mg/kg/injection, schedule: Q01DX009 (ip), vehicle: water); 166 % of control (endpoint: median survival time, dose: 8.6 mg/kg/injection, schedule: Q01DX009 (ip), vehicle: water); 168 % of control (endpoint: median survival time, dose: 12.5 mg/kg/injection, schedule: Q01DX009 (ip), vehicle: water); 171 % of control (endpoint: median survival time, dose: 14.4 mg/kg/injection, schedule: Q01DX009 (ip), vehicle: water); 172 % of control (endpoint: median survival time, dose: 24.0 mg/kg/injection, schedule: Q01DX009 (ip), vehicle: water). The T/C is 179 % of control (endpoint: median survival time, dose: 25.0 mg/kg/injection, schedule: Q01DX009 (ip), vehicle: water); 175 % of control (endpoint: median survival time, dose: 40.0 mg/kg/injection, schedule: Q01DX009 (ip), vehicle: water); 108 % of control (endpoint: median survival time, dose: 50.0 mg/kg/injection, schedule: Q01DX009 (ip), vehicle: water); 116 % of control (endpoint: median survival time, dose: 66.7 mg/kg/injection, schedule: Q01DX009 (ip), vehicle: water); 93 % of control (endpoint: median survival time, dose: 100.0 mg/kg/injection, schedule: Q01DX009 (ip), vehicle: water).
With `CCCCC(C#N)(CCCC)C(=O)OCC`, the T/C by setting is: (endpoint: mean survival time, dose: 50.0 mg/kg/injection, schedule: Q01DX009 (ip), vehicle: saline with Tween-80) 101 % of control; under setting [6], 91 % of control; under setting [7], 97 % of control.
On to `COc1ccccc1NC(=O)CSC(N)=O`, for which the T/C is 98 % of control (endpoint: mean survival time, dose: 50.0 mg/kg/injection, schedule: Q01DX001 (ip), vehicle: saline); 97 % of control (endpoint: mean survival time, dose: 100.0 mg/kg/injection, schedule: Q01DX001 (ip), vehicle: saline); 102 % of control under setting [8]; 94 % of control under setting [9]; 103 % of control (endpoint: mean survival time, dose: 200.0 mg/kg/injection, schedule: Q01DX001 (ip), vehicle: saline); 93 % of control under setting [10]. Besides, the T/C under setting [11] was 91 % of control; the T/C (endpoint: mean survival time, dose: 400.0 mg/kg/injection, schedule: Q01DX001 (ip), vehicle: saline) was 97 % of control; the T/C under setting [12] is 96 % of control; the T/C under setting [13] was 91 % of control.
Regarding `CC1CN(C)CCN1C` (stereo unspecified), the T/C reads like this: under setting [8], 100 % of control; under setting [9], 104 % of control; under setting [10], 100 % of control; under setting [11], 104 % of control; under setting [12], 98 % of control; under setting [13], 98 % of control.
Regarding `C=CC1(C)C(C)=C(C)C(C)=C1C`, the T/C (endpoint: mean survival time, dose: 100.0 mg/kg/injection, schedule: Q01DX001 (ip), vehicle: saline sonified) was 100 % of control; the T/C (endpoint: mean survival time, dose: 200.0 mg/kg/injection, schedule: Q01DX001 (ip), vehicle: saline sonified) was 94 % of control; the T/C (endpoint: mean survival time, dose: 400.0 mg/kg/injection, schedule: Q01DX001 (ip), vehicle: saline sonified) was 89 % of control.
Consider `CC(C)CC(C)(C)COP(=S)(OCC(C)(C)CC(C)C)OCC(C)(C)CC(C)C`, for which the T/C reads like this: under setting [14], 91 % of control; under setting [15], 91 % of control; under setting [16], 102 % of control.
Consider `Nc1ccc(SCCCc2c(N)nc(N)nc2N)cc1`, for which the T/C was 100 % of control (endpoint: mean survival time, dose: 100.0 mg/kg/injection, schedule: Q01DX001 (ip), vehicle: other) and 96 % of control (endpoint: mean survival time, dose: 200.0 mg/kg/injection, schedule: Q01DX001 (ip), vehicle: other).
Consider `O=C1C(c2ccccc2)=C2C(=C1c1ccccc1)c1cccc3cccc2c13`, for which the T/C runs as follows: under setting [3], 92 % of control; under setting [4], 90 % of control; under setting [5], 92 % of control.
With `Cc1ccc([N+](=O)[O-])cc1O`, the T/C is, setting by setting: (endpoint: mean survival time, dose: 25.0 mg/kg/injection, schedule: Q01DX009 (ip), vehicle: saline) 97 % of control; (endpoint: mean survival time, dose: 50.0 mg/kg/injection, schedule: Q01DX009 (ip), vehicle: saline) 106 % of control; under setting [8], 100 % of control.
For `CSC(=CC(=O)c1ccccc1)SC`, the T/C reads like this: (endpoint: mean survival time, dose: 75.0 mg/kg/injection, schedule: Q01DX001 (ip), vehicle: saline) 101 % of control; (endpoint: mean survival time, dose: 150.0 mg/kg/injection, schedule: Q01DX001 (ip), vehicle: saline) 106 % of control.
As for `CC(C)(C)C(=O)CC(=O)C(C)(C)C.CC(C)(C)C(=O)CC(=O)C(C)(C)C.CC(C)(C)C(=O)CC(=O)C(C)(C)C.[Fe]`, the T/C runs as follows: under setting [6], 98 % of control; under setting [3], 100 % of control; under setting [7], 97 % of control; under setting [4], 96 % of control; (endpoint: mean survival time, dose: 400.0 mg/kg/injection, schedule: Q01DX009 (ip), vehicle: saline with Tween-80) 95 % of control; under setting [5], 91 % of control.
In the case of `N#CC1C(C#N)C1C#N` (stereo unspecified), the T/C reads like this: under setting [1], 98 % of control; under setting [2], 98 % of control.
Consider `O=C(O)c1c(Cl)cccc1Br`, for which the T/C under setting [14] was 95 % of control, the T/C under setting [15] is 95 % of control and the T/C under setting [16] is 98 % of control.
On to `CCOC(=O)c1[nH]c2cccc3c2c1CC(Br)C3=O` (stereo unspecified), for which the T/C is, setting by setting: (endpoint: median survival time, dose: 12.5 mg/kg/injection, schedule: Q01DX009 (ip), vehicle: saline with Tween-80) 120 % of control; (endpoint: median survival time, dose: 25.0 mg/kg/injection, schedule: Q01DX009 (ip), vehicle: saline with Tween-80) 109 % of control; (endpoint: median survival time, dose: 50.0 mg/kg/injection, schedule: Q01DX009 (ip), vehicle: saline with Tween-80) 109 % of control; (endpoint: median survival time, dose: 100.0 mg/kg/injection, schedule: Q01DX009 (ip), vehicle: saline with Tween-80) 107 % of control.
